Experimental data from PubChem BioAssay AID2202556 (NIEHS Division of Translational Toxicology (DTT)).
Results filed as inconclusive are left out. Active and inactive are the calls of the source. How the calls were made is not given here.

These compounds were tested on in vivo alkaline comet assay, DNA damage, mouse/rat (assay: In vivo alkaline comet assay, summary data).
Source text: The comet assay examines the ability of substances to cause DNA damage in cells from a variety of different tissues, such as liver, stomach, lung, or brain.
There are multiple forms of DNA damage, including DNA adducts (addition of a chemical structure to a DNA base), oxidative damage to DNA, and breaks in one or both strands. The comet assay can detect single and double strand breaks, DNA adducts, and DNA crosslinks, as well as breaks along the DNA strand that are produced during the normal processes of DNA repair or replication. Thus, the comet assay provides a snapshot of the balance between DNA damage and DNA repair at the time the tissue was harvested.
The DNA damage detected by the comet assay can resolve in several ways. The damage is most often rapidly and correctly repaired. Alternately, a cell that sustains DNA damage may die without passing the damage on to daughter cells following cell division. However, if the damage is not repaired or is repaired incorrectly, the daughter cells may inherit the damage as mutations or chromosome breaks, which are found in many human diseases including cancer. The outcome of the detected DNA damage is unknown.
The comet assay provides the advantage of being able to look at chemical effects on DNA in tissues other than bone marrow, which is the main source of cells used to examine chemical-induced chromosome damage and mutation induction in animals (see Micronucleus Assay).
Animals (rats or mice) are treated with a test substance once or multiple times, and DNA damage is usually evaluated 3-6 hours after the final treatment.
The animal tissue is rapidly minced in a buffer solution, combined with agarose, and layered onto slides. The slides are placed in a solution that removes the cellular and nuclear membranes and cellular proteins, leaving behind the nuclear DNA. The slides are then incubated in an alkaline solution (pH > 13) to convert alkali-labile sites into strand breaks and allow the DNA to unwind. Next, the slides are subjected to an electrical field in a tank filled with a buffer solution. Broken DNA, having a negative charge, migrates out of the area of the nucleus toward the positively charged anode. This forms a comet-like shape with the nucleus at the "head" and the migrated DNA as the "tail." All steps of the method are performed using ice-cold solutions and buffers. After this process, the DNA is stained with a fluorescent dye and cells are analyzed using Comet Assay IV Imaging Software.
For each cell, DNA migration is analyzed using an automated software system attached to a microscope. The extent of damage is characterized as the percent tail DNA (how much DNA migrated to the tail, compared to the total DNA as a percentage). At least 100 cells per sample are evaluated; current guidelines for the assay recommend analysis of at least 150 cells per sample. The data is statistically analyzed to determine if there is a significant increase in percent tail DNA in chemical-exposed animals compared to the controls (animals not exposed).
Dose-related responses, as well as significant dose groups, are considered during the evaluation of the data. For a positive test, both a dose response and at least one significant dose group are required. If only one of these measures is present, the test is considered to be equivocal. The absence of either condition results in a negative test. The final conclusions for comet assays are determined by considering the results of statistical analyses, reproducibility of any observed effects, and the magnitude of the effects. Ultimately, both biological and statistical significance are considered when reaching a final conclusion.
For more details, please refer to the original protocol: https://ntp.niehs.nih.gov/research/apptoxres/genetic and publication: https://www.ncbi.nlm.nih.gov/pubmed/26212309
`C=CC1(C)OC(=O)N(c2cc(Cl)cc(Cl)c2)C1=O` (centres undefined) was tested, and the outcome was “active; positive”. For `NC(=O)NO`, the outcome was “active; positive”. For `CNC(=O)Oc1cccc2ccccc12`, the outcome was “active”. In the case of `ClCC1CO1` (centres undefined), the outcome is reported as “active; positive”. For `O=C([O-])[O-].O=C([O-])[O-].[OH-].[OH-].[OH-].[OH-].[OH-].[OH-].[Zn+2].[Zn+2].[Zn+2].[Zn+2].[Zn+2]`, the outcome was “active”. With `c1ccoc1` the outcome was “active; positive”. With `Cc1ccc(N(C)C)cc1` the outcome was “active; negative”. With `C=CC(=O)NC(C)(C)C` the outcome was “active; positive”. For `[O]=[Sb][O][Sb]=[O]`, the outcome was “active; positive”. `CNNC` was tested, and the outcome was “active”. For `OC(CCl)CCl`, the outcome was “active; positive”. For `NC(=O)CC(N)=O`, the outcome was “active; positive”. For `Nc1nc(=O)n([C@@H]2CS[C@H](CO)O2)cc1F`, the outcome was “active; positive”. For `CCNC(=O)CC(C)=O`, the outcome was “active; positive”. With `CCOS(C)(=O)=O` the outcome was “active”. In the case of `CC[C@]1(O)C[C@H]2CN(CCc3c([nH]c4ccccc34)[C@@](C(=O)OC)(c3cc4c(cc3OC)N(C=O)[C@H]3[C@@](O)(C(=O)OC)[C@H](OC(C)=O)[C@]5(CC)C=CCN6CC[C@]43[C@@H]65)C2)C1`, the outcome is reported as “active”. In the case of `CC(=O)CC(C)=O`, the outcome is reported as “active; positive”. With `CC(C)c1ccccc1` the outcome was “active; positive”. For `C=CC(N)=O`, the outcome was “active; positive”.
